Columns and labels:
ECV-304 = experiment: Ratio of ligustrazine EC50 to compound EC50 for human ECV304 cells; assay type: functional
[1] = Cytoprotective activity in H2O2-induced human ECV304 cells assessed as proliferation rate incubated for 24 hrs prior to H2O2-challenge measured after 12 hrs by MTT assay; assay type: functional, cell-based; conditions: ECV-304
[2] = Cytoprotective activity in H2O2-induced human ECV304 cells assessed as proliferation rate at 12.5 uM incubated for 24 hrs prior to H2O2-challenge measured after 12 hrs by MTT assay relative to control; assay type: functional; conditions: ECV-304, read-out: Activity
[3] = Cytoprotective activity in H2O2-induced human ECV304 cells assessed as proliferation rate at 25 uM incubated for 24 hrs prior to H2O2-challenge measured after 12 hrs by MTT assay relative to control; assay type: functional; conditions: ECV-304, read-out: Activity
[4] = Cytoprotective activity in H2O2-induced human ECV304 cells assessed as proliferation rate at 50 uM incubated for 24 hrs prior to H2O2-challenge measured after 12 hrs by MTT assay relative to control; assay type: functional; conditions: ECV-304, read-out: Activity
[5] = Cytoprotective activity in H2O2-induced human ECV304 cells assessed as proliferation rate at 100 uM incubated for 24 hrs prior to H2O2-challenge measured after 12 hrs by MTT assay relative to control; assay type: functional; conditions: ECV-304, read-out: Activity
[6] = Antiplatelet activity in rabbit platelet rich plasma assessed as inhibition of ADP-induced aggregation treated for 5 mins prior to ADP-challenge; assay type: functional; conditions: Oryctolagus cuniculus
[7] = Antiplatelet activity in rabbit platelet rich plasma assessed as inhibition of ADP-induced aggregation at 0.05 mM treated for 5 mins prior to ADP-challenge relative to control; assay type: functional; conditions: Oryctolagus cuniculus
[8] = Antiplatelet activity in rabbit platelet rich plasma assessed as inhibition of ADP-induced aggregation at 0.1 mM treated for 5 mins prior to ADP-challenge relative to control; assay type: functional; conditions: Oryctolagus cuniculus
[9] = Antiplatelet activity in rabbit platelet rich plasma assessed as inhibition of ADP-induced aggregation at 0.4 mM treated for 5 mins prior to ADP-challenge relative to control; assay type: functional; conditions: Oryctolagus cuniculus
[10] = Antiplatelet activity in rabbit platelet rich plasma assessed as inhibition of ADP-induced aggregation at 0.2 mM treated for 5 mins prior to ADP-challenge relative to control; assay type: functional; conditions: Oryctolagus cuniculus

SMILES | Ratio EC50 (ECV-304) | EC50 [1] | growth at 12.5 µM [2] | growth at 25 µM [3] | growth at 50 µM [4] | growth at 100 µM [5] | IC50 [6] | inhibition at 50 µM [7] | inhibition at 100 µM [8] | inhibition at 400 µM [9] | inhibition at 200 µM [10]
Cc1nc(C)c(COC(=O)CCCC[C@@H]2CCSS2)nc1C | 150 | 4 µM | -60% | 71.4% | 160% | 206% | > 2000 µM | 18.8% | 13.4% | 27.6% | 29%
COc1cc(C(=O)O)ccc1OCc1nc(C)c(C)nc1C | – | 810 µM | 15.1% | 16.4% | 18.4% | 19% | > 2000 µM | 11.2% | 1.01% | 4.41% | -11.2%
Cc1nc(C)c(COc2ccc3ccc(=O)oc3c2)nc1C | – | 140 µM | 38.8% | 42% | 44.2% | 46.6% | 1300 µM | 21.7% | 25% | 39.2% | 35.1%
Cc1nc(C)c(CSc2nnnn2-c2ccccc2)nc1C | – | – | -135% | -119% | -78.4% | -136% | > 2000 µM | -4.07% | 12.3% | 9.33% | 4.93%
Cc1nc(C)c(CNC(=O)CN2CCCC2=O)nc1C | – | 1300 µM | -35.8% | 14.5% | 23.4% | 26.4% | 1200 µM | 3.23% | 10.4% | 36% | 19.6%
Cc1nc(C)c(CSc2nc(C)c(CC(=O)O)s2)nc1C | – | 150 µM | 44.9% | 46.2% | 47% | 48.1% | 620 µM | 27.5% | 35% | 46.9% | 38.3%
CCOC(=O)c1ccc(OCc2nc(C)c(C)nc2C)c(OC)c1 | – | 3200 µM | 14.9% | 15.5% | 15.8% | 16% | > 2000 µM | 9.7% | 3.1% | -3.31% | 7.48%
Cc1nc(C)c(Cn2cnc3ccccc32)nc1C | – | – | -91.8% | -13.8% | 0.25% | – | 1900 µM | -0.97% | 11% | 30.9% | 13.1%
CSc1snc(OCc2nc(C)c(C)nc2C)c1C#N | – | > 100000 µM | – | 25.2% | 160% | – | 1500 µM | 3.36% | 13.5% | 32.2% | 22.6%
Cc1nc(C)c(C)nc1C [LIGUSTRAZINE] | – | 600 µM | 10.4% | 12.7% | 22.1% | 42.8% | – | – | – | – | –
Cc1nc(C)c(COc2ccc3c(C)cc(=O)oc3c2)nc1C | – | 140 µM | 12% | 21% | 25.8% | 36.6% | 920 µM | 2.27% | 8.73% | 40.1% | 17.2%
C=CCSSCc1nc(C)c(C)nc1C | – | 1100 µM | 13% | -17.6% | 15% | 51.1% | 1300 µM | 16.7% | 18% | 38.1% | 30.4%
Cc1nc(C)c(Cn2nnc3ccccc32)nc1C | – | > 100000 µM | 23.2% | 25.1% | -96.5% | -178% | 1800 µM | -2.21% | 7.23% | 28.3% | 16.9%
Cc1nc(C)c(CSc2nnc(-c3cccs3)n2N)nc1C | – | 330 µM | 36.2% | 37.4% | 38.2% | 40.2% | 810 µM | 0.15% | 13.4% | 38.5% | 23.2%
Cc1nc(C)c(CSc2nnnn2C)nc1C | – | – | – | -180% | -77% | -117% | > 2000 µM | 1.53% | 4.04% | 9.95% | 13.5%
CCOC(=O)c1ccccc1OCc1nc(C)c(C)nc1C | – | 1000 µM | 17.3% | 18.1% | 19.2% | 20% | 2000 µM | 8.7% | 10.8% | 21.2% | 16.8%
Cc1nc(C)c(CSc2nnnn2-c2cccc3ccccc23)nc1C | – | – | – | – | – | – | > 2000 µM | 2.25% | 10.2% | 13.1% | 5.75%
Cc1nc(C)c(COc2ccccc2C(=O)O)nc1C | – | 610 µM | 14.1% | 17.4% | 18.2% | 20% | 400 µM | 15.6% | 32% | 51.7% | 34.6%
Cc1nc(C)c(CSc2nnc(-c3ccco3)n2N)nc1C | – | 420 µM | 19% | 21.3% | 23.5% | 25.8% | 940 µM | -2.62% | 10.4% | 35.6% | 20%
Cc1nc(C)c(CSc2nc3ccccc3s2)nc1C | – | 360 µM | 4.33% | 7.95% | 9.51% | 17.2% | 1600 µM | 5.12% | 13.4% | 33.4% | 20.9%
O=C(O)/C=C/c1ccc(Cn2ccnc2)cc1 [OZAGREL] | – | – | – | – | – | – | 360 µM | 23.3% | 27.3% | 55.3% | 45.4%
C=CCc1ccc(OCc2nc(C)c(C)nc2C)c(OC)c1 | – | 200 µM | 22% | 28.2% | 30.1% | 36% | > 2000 µM | -4.29% | 1.45% | 6.42% | 12.3%
O=C(O)CCCCC1CCSS1 (stereo not drawn) [LIPOIC ACID, ALPHA] | – | 68 µM | 30.5% | -12.3% | 48.7% | 58.1% | – | – | – | – | –
